Results published in US8017828B2, “Utilization of rare sugars in plant or microorganism” (Shikoku Research Institute Incorporated, priority 2004, dated 2011).

Assays:
[1] = tested on: Brassica rapa var. amplexicaulis (variety: “Haru Ichiban”); assay: Foliar spraying of sugar on Brassica rapa var. amplexicaulis; assay type: in vivo; settings: 0.5% solution sprayed; for Terminal bud weight: control (water) 3.0; for Stem diameter: control (water) 22.8; for Number of lateral buds: control (water) 32.3; for Plant length: control (water) 49.3; for Total weight of lateral buds: control (water) 235.3
From the text: Brassica rapa var. amplexicaulis is a vegetable in the Brassica family, and flower buds are harvested and used. As the same species of vegetables, broccoli, cauliflower and the like are exemplified, which are important horticultural crops. As for such a vegetable, development of flower buds has a large effect on the crop yield. Therefore, during the house cultivation of Brassica rapa var. amplexicaulis (variety: “Haru Ichiban”), foliar spraying of a sugar solution at a concentration of 0.5% (w/v) was carried out and effects on the growth and the development of flower buds were examined. The seeds of Brassica rapa var. amplexicaulis were sown in a 128-cell tray on Oct. 23, 2003 and raised for about 20 days. Then, the raised seedlings were transplanted for permanent planting with a planting distance of 40 cm on two rows with an inter row space of 50 cm in separate beds filled with soil for cultivation “Hana to Yasai no Tsuchi (garden soil for flowers and vegetables)” (Kurokawa Shubyo En) on Nov. 12, 2003. The cultivation was carried out by a simple fertigation system, and irrigation was carried out for 1 hour on a daily basis with a 2,000-fold dilution of Hyponex through an irrigation tube. The cultivation was carried out in a vinyl house without heating with side windows open. From Dec. 18, 2003, water or a 0.5% (w/v) sugar solution was sprayed onto the whole plant on a three times weekly basis. As for the types of sugars, D-glucose, D-fructose and D-psicose were used and five plants were cultivated for each test plot. On Feb. 23, 2004, three plants of medium size were harvested and a survey was carried out. The survey items were plant length, stem diameter, number of lateral buds, terminal bud weight, total weight of lateral buds and the like.

[2] = tested on: Fusarium oxysporum, Glomerella cingulata, Verticillium dahliae and Botrytlis cinerea; assay: Mycelial elongation of plant pathogenic bacteria on agar with rare sugar; assay type: cell-based; settings: 0.05% (w/v) in agar medium, 23° C., 7 days
Description: By using as targets, Fusarium oxysporum, Glomerella cingulata, Verticillium dahliae and Botrytlis cinerea, which are typical plant pathogenic bacteria, an effect of a rare sugar on mycelial elongation was examined.
As the test bacterial strains, IFO 31213 strain, IFO 6425 strain, IFO 9765 strain and IFO 9760 strain were used.
After the cultivation, the length of the extending mycelium was measured.

[3] = tested on: strawberry plant (variety: “smile ruby”); assay: Growth of strawberry seedlings in tissue culture medium with sugar; assay type: in vivo; settings: increased (high) concentration in medium
[4] = tested on: stress/hormone response genes; assay type: in vivo, Lotus japonicus; settings: for activation of gene group that responds to pathogenic bacteria and environmental stresses: 5 mM in medium, first one week
Description: A pattern of induction of a gene in the case where D-psicose was added to a medium for Lotus japonicus was examined by an experiment using a cDNA array.
Lotus japonicus was germinated from a seed and cultivated in an L&B medium (hydroponic culture medium). When the seed was germinated, Mesorhizobium loti was also inoculated. This condition was applied to both a control plot and a plot of D-psicose addition. With regard to the array, a microarray on which 14,000 clones were immobilized by using a Lotus japonicus cDNA array was used. After test plants were germinated, they were cultivated with an L&B medium supplemented with D-psicose or without addition for 1 week in a growth cabinet (22° C., 30,000 Lux). After total RNA was extracted from the plant body, it was labeled with ^33P in the process where it was converted to cDNA, and then hybridization was carried out. Reading was carried out using STORM 850 and analysis was carried out with Array Vision.

[5] = tested on: strawberry plant (variety: “smile ruby”); assay: Growth of strawberry seedlings in tissue culture medium with sugar; assay type: in vivo; settings: for Underground part weight / Number of lateral buds / Aerial part weight / Root length: 0.1% (w/v) in medium; for Underground part weight: without addition 0.5; for Number of lateral buds: without addition 0.6; for Aerial part weight: without addition 1.8; for Root length: without addition 8.7; for Plant length: 0.1% (w/v) in ½ strength MS medium, without addition 3.0
Description: Seedlings of a strawberry plant (variety: “smile ruby”) obtained by meristem culture under sterile conditions were used in an experiment.
As for the strawberry, by using ½ strength MS medium supplemented with 0.1% (w/v) D-psicose or D-glucose, the seedling plants were aseptically transplanted on Oct. 14, 2003, and then, cultivation was carried out in a culture chamber at 25° C. and 5,000 Lux (12-hour day length). Then, on Jan. 20, 2004, a survey was carried out with regard to the growth conditions of aerial part and underground part, the number of lateral buds and the like.

[6] = tested on: seeds of vegetables, ornamental plants, herbs, fruit trees, grains and feed crops; assay: Seed germination, continuous treatment (Experiment 1); assay type: in vivo
From the text: Seeds of vegetables (11 families and 51 species or varieties); ornamental plants (19 families and 47 species or varieties); […] (4 families and 14 species or varieties); fruit trees (3 families and 3 species or varieties); grains (1 family and 3 species or varieties); and feed crops (1 family and 3 species or varieties) were continuously treated with any of 4 types of solutions of deionized water (control), 1% D-fructose, 1% D-psicose and 0.5% D-fructose+0.5% D-psicose and germinated under the condition of 25° C., 35 μmol·m^−2·s^−1, and 16-hour lighting or 16-hour dark. As for the number of seeds, 50 seeds were used for each solution basically, and when the number of seeds was small, the seeds were distributed in such a manner that the number of seeds for each solution became equal. The seeds were sown in a dish with a diameter of 9 cm having a filter paper placed therein or when the seeds were large, they were sown in a styrol container with a diameter of 10 cm and a height of 45 mm. Then, 10 ml or 50 ml of any of the solutions was poured therein, and deionized water was suitably added depending on the transpiration.

Primula = assay: Drying stress of Primula after foliar spraying; assay type: in vivo; settings: foliar spraying of 0.2% (w/v) solution
Description: By using Primula, an effect of spraying D-psicose on a drying stress was examined. By using commercially available Primula planted in a pot, foliar spraying of water, a 0.2% (w/v) D-glucose solution or a 0.2% (w/v) D-psicose solution was carried out on the whole plant. After irrigation was sufficiently carried out from the lower part of the pot, the plant was left in a condition that no irrigation was carried out, and a wilted condition thereof was observed.

[7] = 1% continuous, 41 species listed

O=C[C@H](O)[C@H](O)[C@H](O)[C@H](O)CO [D-allose]
Terminal bud weight [1]: 7.9 g
Stem diameter [1]: 23.6 mm
Number of lateral buds [1]: 38.0
Plant length [1]: 60.7 cm
Total weight of lateral buds [1]: 222.5 g
inhibitory effect on mycelial elongation [2]: has an effect on inhibiting mycelial elongation
growth when the concentration added to the medium was increased [3]: the growth thereof was delayed

O=C(CO)[C@H](O)[C@H](O)[C@H](O)CO [D-psicose]
activation of gene group that responds to pathogenic bacteria and environmental stresses [4]: activated
expression of a gene group regulated by plant hormones such as auxin ([4]; about 0.1 mM in medium): an increase or a decrease in the expression
Expression ratio (D-psicose/water): auxin response factor 6 (ARF6) ([4]; psicose: 0.1 mM, 1 week): 2.5
Expression ratio (D-psicose/water): auxin-binding protein T85 precursor (ABP) ([4]; psicose: 0.1 mM, 1 week): 2.4
Expression ratio (D-psicose/water): chitinase ([4]; psicose: 0.1 mM, 1 week): 2.2
Expression ratio (D-psicose/water): chitinase (EC 3.2.1.14) class II ([4]; psicose: 0.1 mM, 1 week): 2.2
Expression ratio (D-psicose/water): glycine-rich RNA-binding, abscisic acid-inducible protein ([4]; psicose: 0.1 mM, 1 week): 2.5
Expression ratio (D-psicose/water): metal stress-regulated protein SR7 ([4]; psicose: 0.1 mM, 1 week): 2.4
Expression ratio (D-psicose/water): pathogen-inducible alpha-dioxygenase ([4]; psicose: 0.1 mM, 1 week): 2.4
Expression ratio (D-psicose/water): putative WD-40 repeat protein ([4]; psicose: 0.1 mM, 1 week): 2.2
Expression ratio (D-psicose/water): turgor-responsive protein 26G ([4]; psicose: 0.1 mM, 1 week): 2.3
Expression ratio (D-psicose/water): ACC oxidase ([4]; psicose: 5 mM, 1 week): 5.1
Expression ratio (D-psicose/water): PDR5-like ABC transporter ([4]; psicose: 5 mM, 1 week): 10.8
Expression ratio (D-psicose/water): PR-10-1 protein ([4]; psicose: 5 mM, 1 week): 5.5
Expression ratio (D-psicose/water): auxin response factor like protein ([4]; psicose: 5 mM, 1 week): 5.6
Expression ratio (D-psicose/water): chalcone synthase ([4]; psicose: 5 mM, 1 week): 5.4
Expression ratio (D-psicose/water): class I chitinase ([4]; psicose: 5 mM, 1 week): 13.2
Underground part weight [5]: 1.9 g
Number of lateral buds [5]: 1.3
Aerial part weight [5]: 3.1 g
Root length [5]: 7.2 cm
Plant length [5]: 4.5 cm
Terminal bud weight [1]: 8.8 g
Stem diameter [1]: 26.9 mm
Number of lateral buds [1]: 43.0
Plant length [1]: 61.2 cm
Total weight of lateral buds [1]: 225.0 g
germination ([6]; 1% continuous, 32 species listed): Inhibition of Germination
germination [6, 7]: Inhibited
elongation of roots ([6]; 1% continuous, Diospyros kaki): inhibited
germination ([6]; 1% continuous, Myosotis scorpioides and Chinese lantern plant (2 species)): Significantly Inhibited
germination ([6]; 1% continuous, Salsola komarovii, Diospyros kaki, Clarkia amoena (3 species)): Not Affected or was Promoted Slightly
germination ([6]; many plants in the Brassica family): inhibited
inhibitory effect on mycelial elongation [2]: has an effect on inhibiting mycelial elongation
time until wilt of the whole plant without irrigation (Primula): 2 days
growth when the concentration added to the medium was increased [3]: the growth thereof was delayed

O=C(CO)[C@@H](O)[C@H](O)[C@H](O)CO [D-fructose, reference compound]
activation of gene group that responds to pathogenic bacteria and environmental stresses [4]: not observed
Terminal bud weight [1]: 7.4 g
Stem diameter [1]: 19.9 mm
Number of lateral buds [1]: 41.3
Plant length [1]: 55.8 cm
Total weight of lateral buds [1]: 231.1 g
effect on inhibition of germination by D-psicose ([6]; 0.5% D-fructose+0.5% D-psicose, 32 species listed): Mitigated
germination [6, 7]: Inhibited
germination ([6]; 1% continuous, Lemon Balm and Green Pea (2 species)): Promoted

O=C[C@H](O)[C@@H](O)[C@H](O)[C@H](O)CO [D-glucose, reference compound]
Underground part weight [5]: 1.2 g
Number of lateral buds [5]: 1.0
Aerial part weight [5]: 3.0 g
Root length [5]: 8.7 cm
Plant length [5]: 4.3 cm
Terminal bud weight [1]: 5.7 g
Stem diameter [1]: 20.6 mm
Number of lateral buds [1]: 32.0
Plant length [1]: 56.3 cm
Total weight of lateral buds [1]: 198.1 g
time until wilt of the whole plant without irrigation (Primula): one day
